In the NIST ThermoML archive (doi:10.1016/j.tca.2013.11.010):
± gives the expanded uncertainty stated by the source.

Tests used:
[1] = refractive index (Na D-line) (dimensionless); conditions: 101.33 kPa, Liquid, Standard Abbe refractometry
[2] = relative permittivity at various frequencies (dimensionless); conditions: 101.3 kPa, Liquid, Frequency=2 MHz, Parallel plate capacitor
[3] = for surface tension liquid-gas: Drop volume; for viscosity / speed of sound / mass density: 101.33 kPa; for viscosity / speed of sound / mass density / vapor or sublimation pressure: Liquid; for viscosity: Capillary tube (Ostwald / Ubbelohde) method; for speed of sound: Sing-around technique in a fixed-path interferometer; for mass density: Vibrating tube method; for vapor or sublimation pressure: Ebulliometric method (Recirculating still)

COC(=O)C(C)O (stereo unspecified) [methyl 2-hydroxypropanoate]
Conditions | mass density, [3] [kg/m3] | refractive index, [1] | relative permittivity, [2] | speed of sound, [3] [m/s] | surface tension liquid-gas, [3] [mN/m] | vapor or sublimation pressure, [3] [kPa] | viscosity, [3] [mPa·s]
278.15 K | 1109.61 ± 1.1 | – | 18.379 ± 0.18 | 1416.4 ± 2.3 | 35.05 ± 0.39 | – | 5.21 ± 0.12
280.65 K | 1106.86 ± 1.1 | – | 18.095 ± 0.18 | 1407.1 ± 2.3 | 34.8 ± 0.39 | – | 4.706 ± 0.11
283.15 K | 1104.11 ± 1.1 | 1.41831 ± 0.00054 | 17.817 ± 0.18 | 1397.6 ± 2.3 | 34.53 ± 0.39 | – | 4.281 ± 0.098
285.65 K | 1101.34 ± 1.1 | 1.41722 ± 0.00054 | 17.634 ± 0.18 | 1387.9 ± 2.3 | 34.25 ± 0.38 | – | 3.916 ± 0.09
288.15 K | 1098.57 ± 1 | 1.41613 ± 0.00054 | 17.353 ± 0.17 | 1378.2 ± 2.3 | 34.04 ± 0.38 | – | 3.588 ± 0.082
290.65 K | 1095.79 ± 1 | 1.41502 ± 0.00054 | 17.06 ± 0.17 | 1368.2 ± 2.3 | 33.73 ± 0.38 | – | 3.299 ± 0.076
293.15 K | 1093.01 ± 1 | 1.41392 ± 0.00054 | 16.779 ± 0.17 | 1358.4 ± 2.3 | 33.47 ± 0.37 | – | 3.043 ± 0.07
295.65 K | 1090.23 ± 1 | 1.41281 ± 0.00054 | 16.493 ± 0.17 | 1348.6 ± 2.3 | 33.14 ± 0.37 | – | 2.819 ± 0.065
298.15 K | 1087.43 ± 1 | 1.41171 ± 0.00054 | 16.21 ± 0.16 | 1338.8 ± 2.3 | 32.9 ± 0.37 | – | 2.618 ± 0.06
300.65 K | 1084.64 ± 1 | 1.41061 ± 0.00054 | 15.923 ± 0.16 | 1329.2 ± 2.3 | 32.6 ± 0.37 | – | 2.438 ± 0.056
303.15 K | 1081.83 ± 1 | 1.40949 ± 0.00054 | 15.647 ± 0.16 | 1319.5 ± 2.3 | 32.25 ± 0.36 | 0.692 ± 0.1 | 2.277 ± 0.052
305.65 K | 1079.02 ± 1 | 1.40837 ± 0.00054 | 15.412 ± 0.15 | 1309.9 ± 2.3 | 31.95 ± 0.36 | – | 2.132 ± 0.049
308.15 K | 1076.2 ± 1 | 1.40725 ± 0.00054 | 15.093 ± 0.15 | 1300.4 ± 2.3 | 31.58 ± 0.36 | 0.967 ± 0.1 | 2 ± 0.046
310.65 K | 1073.38 ± 0.99 | 1.40614 ± 0.00054 | 14.861 ± 0.15 | 1290.9 ± 2.3 | 31.23 ± 0.35 | – | 1.881 ± 0.043
313.15 K | 1070.55 ± 0.98 | 1.40502 ± 0.00054 | 14.598 ± 0.15 | 1281.4 ± 2.3 | 30.87 ± 0.35 | 1.333 ± 0.1 | 1.772 ± 0.041
315.65 K | 1067.71 ± 0.98 | 1.40386 ± 0.00054 | 14.355 ± 0.14 | 1271.9 ± 2.3 | 30.63 ± 0.35 | – | 1.672 ± 0.038
318.15 K | 1064.86 ± 0.97 | 1.40276 ± 0.00054 | 14.127 ± 0.14 | 1262.4 ± 2.3 | 30.34 ± 0.34 | 1.821 ± 0.1 | 1.58 ± 0.036
320.65 K | 1062.01 ± 0.97 | 1.40164 ± 0.00054 | 13.9 ± 0.14 | 1253 ± 2.3 | 30.08 ± 0.34 | – | 1.499 ± 0.034
323.15 K | 1059.15 ± 0.96 | 1.40051 ± 0.00054 | 13.666 ± 0.14 | 1243.5 ± 2.3 | 29.71 ± 0.34 | 2.399 ± 0.1 | 1.425 ± 0.033
325.65 K | 1056.28 ± 0.95 | 1.39937 ± 0.00054 | 13.359 ± 0.13 | 1234.1 ± 2.3 | 29.38 ± 0.33 | – | 1.345 ± 0.031
328.15 K | 1053.4 ± 0.95 | 1.39821 ± 0.00054 | 13.113 ± 0.13 | 1224.6 ± 2.3 | 29.03 ± 0.33 | 3.173 ± 0.1 | 1.29 ± 0.03
330.65 K | 1050.52 ± 0.94 | 1.3971 ± 0.00054 | 12.879 ± 0.13 | 1215.2 ± 2.3 | 28.83 ± 0.33 | – | 1.231 ± 0.028
333.15 K | 1047.63 ± 0.94 | 1.39596 ± 0.00054 | 12.631 ± 0.13 | 1205.7 ± 2.3 | 28.52 ± 0.32 | 4.139 ± 0.1 | 1.175 ± 0.027
335.65 K | 1044.73 ± 0.93 | 1.39479 ± 0.00054 | 12.319 ± 0.12 | 1196.3 ± 2.3 | 28.22 ± 0.32 | – | 1.136 ± 0.026
338.15 K | 1041.83 ± 0.92 | 1.39365 ± 0.00054 | 12.012 ± 0.12 | 1186.9 ± 2.3 | 27.92 ± 0.32 | 5.319 ± 0.1 | 1.075 ± 0.025
343.15 K | – | – | – | – | – | 6.889 ± 0.1 | –
348.15 K | – | – | – | – | – | 8.652 ± 0.1 | –
353.15 K | – | – | – | – | – | 10.81 ± 0.1 | –
358.15 K | – | – | – | – | – | 13.49 ± 0.1 | –
363.15 K | – | – | – | – | – | 16.6 ± 0.11 | –
368.15 K | – | – | – | – | – | 20.3 ± 0.11 | –
373.15 K | – | – | – | – | – | 24.7 ± 0.11 | –
378.15 K | – | – | – | – | – | 29.68 ± 0.12 | –
383.15 K | – | – | – | – | – | 35.5 ± 0.13 | –
388.15 K | – | – | – | – | – | 42.28 ± 0.14 | –
393.15 K | – | – | – | – | – | 50 ± 0.15 | –
398.15 K | – | – | – | – | – | 58.68 ± 0.16 | –
403.15 K | – | – | – | – | – | 68.64 ± 0.17 | –
408.15 K | – | – | – | – | – | 79.85 ± 0.2 | –
413.15 K | – | – | – | – | – | 92.5 ± 0.22 | –
